Reference: ChEMBL document CHEMBL5385876, “Discovery of unglycosylated indolocarbazoles as ROCK2 isoform-selective inhibitors for the treatment of breast cancer metastasis” (Eur J Med Chem, 2023)

Biological target: Rho-associated protein kinase 2 (Homo sapiens, UniProt O75116)
Test: Inhibition of N-terminal His10-StrepII tagged human ROCK2 catalytic domain (1 to 553 residues) expressed in Sf9 insect cells by HTRF assay

Sequence of Rho-associated protein kinase 2 (O75116 whole entry, the tested form may be a part): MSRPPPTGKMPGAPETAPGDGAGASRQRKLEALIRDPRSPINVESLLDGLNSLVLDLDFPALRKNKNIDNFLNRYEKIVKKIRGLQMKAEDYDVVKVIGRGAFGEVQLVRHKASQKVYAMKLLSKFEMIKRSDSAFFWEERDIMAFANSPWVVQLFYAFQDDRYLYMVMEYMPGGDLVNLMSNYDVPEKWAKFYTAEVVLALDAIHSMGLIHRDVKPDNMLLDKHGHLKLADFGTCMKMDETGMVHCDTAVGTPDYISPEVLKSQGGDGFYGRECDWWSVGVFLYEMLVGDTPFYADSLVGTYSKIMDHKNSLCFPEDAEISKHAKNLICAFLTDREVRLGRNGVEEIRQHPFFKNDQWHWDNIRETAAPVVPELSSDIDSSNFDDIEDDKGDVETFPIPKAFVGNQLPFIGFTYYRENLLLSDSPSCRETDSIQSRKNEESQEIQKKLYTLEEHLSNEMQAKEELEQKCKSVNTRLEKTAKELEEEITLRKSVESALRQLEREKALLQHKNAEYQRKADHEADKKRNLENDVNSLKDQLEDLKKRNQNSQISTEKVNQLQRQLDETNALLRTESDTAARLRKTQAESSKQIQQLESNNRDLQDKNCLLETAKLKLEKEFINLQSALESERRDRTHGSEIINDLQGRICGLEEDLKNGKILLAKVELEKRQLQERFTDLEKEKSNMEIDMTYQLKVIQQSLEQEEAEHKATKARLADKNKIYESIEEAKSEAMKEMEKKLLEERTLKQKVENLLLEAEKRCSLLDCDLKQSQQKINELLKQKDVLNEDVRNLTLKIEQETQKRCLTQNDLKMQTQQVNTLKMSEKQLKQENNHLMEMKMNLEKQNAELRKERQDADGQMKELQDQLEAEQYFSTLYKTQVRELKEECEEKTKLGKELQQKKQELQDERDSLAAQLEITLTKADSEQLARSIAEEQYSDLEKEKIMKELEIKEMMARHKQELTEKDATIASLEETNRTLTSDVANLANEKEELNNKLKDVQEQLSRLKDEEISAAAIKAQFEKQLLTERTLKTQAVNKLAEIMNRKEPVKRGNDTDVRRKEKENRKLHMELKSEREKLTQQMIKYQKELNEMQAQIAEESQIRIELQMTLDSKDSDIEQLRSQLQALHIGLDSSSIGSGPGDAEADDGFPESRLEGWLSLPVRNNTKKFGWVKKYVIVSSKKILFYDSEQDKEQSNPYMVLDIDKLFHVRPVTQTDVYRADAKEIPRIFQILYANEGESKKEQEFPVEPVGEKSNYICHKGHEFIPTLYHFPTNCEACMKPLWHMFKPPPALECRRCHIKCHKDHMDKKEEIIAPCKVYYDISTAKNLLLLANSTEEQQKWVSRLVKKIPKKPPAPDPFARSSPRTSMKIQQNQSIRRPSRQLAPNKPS

Row | Structure (SMILES) | IC50
1 | COC(=O)c1cccc2c1NC1(C[C@H]3O[C@]1(C)n1c4ccccc4c4c5c(c6c7ccccc7n3c6c41)C(=O)NC5)C(=O)O2 (stereo partly specified) | > 0.5 µM
2 | C[C@@H]1O[C@@H](n2c3ccccc3c3c4c(c5c6ccccc6[nH]c5c32)C(=O)NC4=O)C[C@@H](NC=O)[C@H]1O | 0.25 µM
3 | CO[C@@H]1[C@@H](O)C[C@H]2O[C@]1(C)n1c3ccccc3c3c4c(c5c6ccccc6n2c5c31)C(=O)NC4 | 0.72 µM
4 | COc1ccc2[nH]c3c4[nH]c5ccc(OC)cc5c4c4c(c3c2c1)C(=O)NC4=O [GW296115X] | > 0.5 µM
5 | CO[C@@H]1[C@H](NC(C)=O)C[C@H]2O[C@]1(C)n1c3ccccc3c3c4c(c5c6ccccc6n2c5c31)C(=O)NC4 | 0.34 µM
6 | CO[C@H]1NC(=O)c2c1c1c3ccccc3n3c1c1c2c2ccccc2n1[C@@H]1O[C@@]3(C)[C@H](OC)[C@@H](O)[C@H]1O | > 0.5 µM
7 | COC(=O)[C@]1(O)C[C@H]2O[C@]1(C)n1c3ccccc3c3c4c(c5c6ccccc6n2c5c31)C(=O)NC4 | > 0.5 µM
8 | C[C@H]1O[C@@H]2C[C@](O)([C@@H]1O)n1c3ccccc3c3c4c(c5c6ccccc6n2c5c31)C(=O)NC4 | > 0.5 µM
9 | COC(=O)[C@@]1(O)C[C@H]2O[C@]1(C)n1c3ccccc3c3c4c(c5c6ccccc6n2c5c31)C(=O)NC4 [K-252A] | > 0.5 µM
10 | CO[C@@H]1[C@H](N(C)C(C)=O)C[C@H]2O[C@]1(C)n1c3ccccc3c3c4c(c5c6ccccc6n2c5c31)C(=O)NC4 | 0.57 µM
11 | C[C@@H]1O[C@@H](n2c3ccccc3c3c4c(c5c6ccccc6[nH]c5c32)CNC4=O)C[C@@H](NC=O)[C@H]1O | > 0.5 µM
12 | C[C@]12O[C@H](C[C@@H](N)[C@H]1O)n1c3ccccc3c3c4c(c5c6ccccc6n2c5c31)CNC4=O | 0.035 µM
13 | C[C@]12O[C@H](C[C@]1(O)C(=O)O)n1c3ccccc3c3c4c(c5c6ccccc6n2c5c31)C(=O)NC4=O | 0.3 µM
14 | COC(=O)[C@H]1C[C@H]2O[C@]1(C)n1c3ccccc3c3c4c(c5c6ccccc6n2c5c31)C(=O)NC4 | 0.37 µM
15 | C[C@@H]1O[C@@H](n2c3ccccc3c3c4c(c5c6ccccc6[nH]c5c32)C(=O)NC4=O)[C@H](O)[C@H](O)[C@H]1O | > 0.5 µM
16 | C[C@@H]1O[C@@H]2C[C@](O)([C@H]1O)n1c3ccccc3c3c4c(c5c6ccccc6n2c5c31)C(=O)NC4 | > 0.5 µM
17 | CO[C@@H]1[C@H](N)C[C@H]2O[C@]1(C)n1c3ccccc3c3c4c(c5c6ccccc6n2c5c31)C(=O)NC4=O | 0.36 µM
18 | CO[C@@H]1/C(=N/O)C[C@H]2O[C@]1(C)n1c3ccccc3c3c4c(c5c6ccccc6n2c5c31)C(=O)NC4 | > 0.5 µM
19 | CN[C@@H]1C[C@H]2O[C@@](C)([C@@H]1OC)n1c3ccccc3c3c4c(c5c6ccccc6n2c5c31)C(=O)NC4=O (stereo in doubt; 14) | 0.31 µM
20 | CO[C@H]1[C@@H](N2CC[C@@H](O)C2=O)C[C@H]2O[C@@]1(C)n1c3ccccc3c3c4c(c5c6ccccc6n2c5c31)C(=O)NC4 (racemic) | 0.26 µM

Further lines, results first:

Row | IC50 | Structure (SMILES)
21 | 0.55 µM | Cn1c2ccccc2c2c3c(c4c5ccccc5[nH]c4c21)C(=O)NC3
22 | 0.1 µM | COc1ccc2[nH]c3c4[nH]c5ccccc5c4c4c(c3c2c1)C(=O)NC4=O
23 | 0.12 µM | COc1ccc2[nH]c3c4[nH]c5ccc(O)cc5c4c4c(c3c2c1)CNC4=O
24 | 0.62 µM | COc1ccc2c(c1)[nH]c1c3[nH]c4ccccc4c3c3c(c21)C(=O)NC3=O
25 | > 0.5 µM | COc1cccc2[nH]c3c4[nH]c5ccccc5c4c4c(c3c12)C(=O)NC4=O
26 | 0.32 µM | COC1NC(=O)c2c1c1c3ccccc3[nH]c1c1[nH]c3ccc(O)cc3c21 (stereo unspecified)
27 | 0.53 µM | O=C1NC(=O)c2c1c1c3ccccc3[nH]c1c1[nH]c3cc(O)ccc3c21
28 | > 0.5 µM | Cc1ccc2[nH]c3c4[nH]c5ccccc5c4c4c(c3c2c1)CNC4=O
29 | 0.46 µM | COc1ccc2[nH]c3c4[nH]c5ccc(O)cc5c4c4c(c3c2c1)C(=O)NC4
30 | > 0.5 µM | COC1NC(=O)c2c1c1c3ccccc3[nH]c1c1[nH]c3ccccc3c21 (stereo unspecified)
31 | > 0.5 µM | O=C1NC(=O)c2c1c1c3ccccc3[nH]c1c1[nH]c3c(O)cccc3c21
